# According to patent US20080260858A1, “Universal Procoagulant” (The Board of Trustees of the University of Illnois, priority 2005, published 2008):
# Read-outs that look alike come from different tables or passages of the source.
# T1: VIIa (Homo sapiens, UniProt P08709)
# T1 construct: VIIa or factor VIIa means coagulation factor VIIa (active enzyme); purchased American Diagnostica
# T1 sequence (P08709 61-212): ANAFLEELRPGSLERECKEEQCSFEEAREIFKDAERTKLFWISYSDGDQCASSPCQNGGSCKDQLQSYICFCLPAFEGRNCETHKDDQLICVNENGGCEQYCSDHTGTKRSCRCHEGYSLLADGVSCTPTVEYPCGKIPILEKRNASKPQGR
# T1 sequence (P08709 213-466): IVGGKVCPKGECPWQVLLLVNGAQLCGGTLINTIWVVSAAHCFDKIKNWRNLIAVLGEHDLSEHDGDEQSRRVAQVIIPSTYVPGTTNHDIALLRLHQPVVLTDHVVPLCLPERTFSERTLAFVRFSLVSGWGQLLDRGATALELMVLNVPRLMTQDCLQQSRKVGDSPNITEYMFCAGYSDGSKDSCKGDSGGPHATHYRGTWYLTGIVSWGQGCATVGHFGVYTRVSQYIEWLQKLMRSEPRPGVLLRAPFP
# B1: rTF: recombinant, membrane-anchoring tissue factor; rTF/PCPS is rTF relipidated into 20 mol % PS, 80 mol % PC vesicles (protein, UniProt P13726 1-295, looked up)
# chain: METPAWPRVPRPETAVARTLLLGWVFAQVAGASGTTNTVAAYNLTWKSTNFKTILEWEPKPVNQVYTVQISTKSGDWKSKCFYTTDTECDLTDEIVKDVKQTYLARVFSYPAGNVESTGSAGEPLYENSPEFTPYLETNLGQPTIQSFEQVGTKVNVTVEDERTLVRRNNTFLSLRDVFGKDLIYTLYYWKSSSSGKKTAKTNTNEFLIDVDKGENYCFSVQAVIPSRTVNRKSTDSPVECMGQEKGEFREIFYIIGAVVFVVIILVIILAISLHKCRKAGVGQSWKENSPLNVS
# modifications: full-length relipidated in PS/PC vesicles
# notes: recombinant, membrane-anchoring tissue factor; rTF/PCPS is rTF relipidated into 20 mol % PS, 80 mol % PC vesicles
# How the values were obtained:
# pooled normal plasma [1] = experiment: aPTT clotting assay; type: biochemical, human; details: metal ion with NTA-lipids (100 μM lipid)
# Procedure: (§1) The modified aPTT reagent contained varying concentrations of the indicated metal salts, NTA-lipids (100 μM lipid), 0.08% (w/v) sodium azide, and 16 mM Hepes buffer, pH 7.4.
# aPTT assays were performed with modified aPTT reagents containing varying concentrations of NiSO4, CoCl2, CuSO4, ZnCl2, FeSO4, CdCl2, CrCl2, AgNO3 or MnCl2 in the presence of NTA-lipids (FIG. 12C). […] Co^2+ and Zn^2+ some activity (see FIG. 12C). […] Ni^2+ performed substantially better in this assay than did Cu^2+.
# aPTT clotting assay—aPTT clotting assays were also carried out in a model ST4 coagulometer (Diagnostica Stago). The aPTT assays were performed by pipetting 50 μl of an aPTT reagent and 50 μl pooled normal plasma into a coagulometer cuvette and incubating the mixture for 3 min at 37° C. 50 μl prewarmed 25 mM CaCl2 was then pipetted into the cuvette and the time to clot formation was recorded.
# VIIa [2] = molecular target: T1, VIIa; experiment: Kd for VIIa binding to TF (X activation rate as readout)
# Procedure: When VIIa binds to TF, its rate of X activation increases dramatically, so this can be used as a convenient readout for TF:VIIa complex formation. […] Therefore, when the isolated TF ectodomain was attached to the membrane surface via interaction with metal-chelating lipids, its VIIa binding ability was indistinguishable from membTF that spanned the lipid bilayer.
# Measurement of the Kd for VIIa binding to TF—The binding affinity of VIIa for various forms of TF was measured using the TF-dependent increase in the rate of X activation as the readout for TF:VIIa complex formation. Activation of X by the TF:VIIa complex was measured by adapting the continuous chromogenic assay of Fiore et al.. Reaction mixtures containing Vila and either rTF/PCPS or sTF+SUVs were prepared in HBSAC. Reactions were initiated by adding a mixture of X and the chromogenic substrate, S-2222, in a flat bottom, 96-well plate. Change in A405 was monitored at ambient temperature in a VERSAmax microplate reader (Molecular Devices), sampling every 15 sec for 20 min. Initial rates of X activation were determined by fitting a second-order polynomial to the A405 data as described. The quadratic ligand binding equation was fit to the rate data as described to derive apparent Kd values for the binding of VIIa to TF. For experiments using relipidated rTF, typical reaction mixtures containing 0.25 μM VIIa and 20 nM X in HBSAC were incubated with increasing concentrations of rTF/PCPS.
# [3] = tested on: pooled normal human plasma; experiment: Clotting assay with immobilized lipids; type: biochemical; details: 200 nmol dried NiPCPSPE per well; 4800 nM
# Procedure: Mixtures of DOGS-NTA-Ni and phospholipids were dried-down in the wells of a polystyrene coagulometer cuvette, the cuvettes were washed to remove any non-immobilized lipid, and then sTF-5AA-(His)6 was added to the wells. Clotting tests were subsequently conducted by adding calcium ions and plasma to wells. […] Control experiments were conducted using other lipid compositions, which were all dried down onto the cuvette well at a single amount of lipid per well (200 nmol).
# Clotting assay with immobilized lipids—Lipid mixtures in chloroform were first dried down in a borosilicate glass test tube under a gentle stream of dry nitrogen gas to remove the solvent, after which the dried lipids were redissolved in n-hexane at a total lipid concentration of 0.3 to 5.3 mM. Complete lipid mixtures were termed NiPCPSPE and consisted of 10% DOGS-NTA-Ni, 12.5% PS, 30% PE, and 47.5% PC. […]
# Each well of an ST4 cuvette received 150 μl of lipid solution in hexane (containing 50 to 800 nmol total lipid per well). […] A 50 μl aliquot of 25 mM CaCl2 was added per well and the cuvettes were incubated for 2 min at 37° C., after which a 50 μl aliquot of pre-warmed (37° C.) pooled normal human plasma was added and the time to clot formation was measured.
# X activation by VIIa = molecular target: T2, X activation by VIIa (Homo sapiens, UniProt P08709); experiment: Factor X activation using liposomes; type: biochemical; details: sTF-5AA-(His)6 with PCPS liposomes, or sTF with NiPCPS liposomes
# T2 construct: VIIa or factor VIIa means coagulation factor VIIa (active enzyme); purchased American Diagnostica
# Procedure: A stringent test of TF:VIIa function is its ability to support the activation of its natural protein substrate, X. This requires that TF be incorporated into a suitable phospholipid membrane (i.e., one containing negatively charged phospholipids). […] The ability of various forms of TF to support the activation of X was compared under equivalent concentrations of enzyme (500 pM VIIa), cofactor (4 pM TF) and liposomes (50 μM total lipid).
# Factor X activation using liposomes. […] At varying times, 20 μl aliquots were removed into a 96-well plate containing 100 μl Stop Buffer 1 (40 mM Mes-NaOH pH 5.8, 12 mM EDTA, 50 mM NaCl, 0.25% Triton X-100, 0.1% NaN3, 0.012% Antifoam C) at 4° C. After warming the stopped reactions to room temperature, Xa was detected by adding 60 μl of 1.5 mM Spectrozyme Xa in HBSAC plus 0.6 M Tricine-NaOH, pH 8.4 and quantifying change in A405. Amounts of Xa generated were determined by comparison to a standard curve with purified Xa.
# pooled normal plasma [4] = experiment: PT clotting assay with modified thromboplastin reagents; type: biochemical, human; details: for Concentration of TF that yields a 50 sec. clot time: His-tagged sTF with Ni-NTA-DOGS/PCPSPE (SUV with 10 mol % Ni-NTA-DOGS), rTF with PCPS
# Procedure: Thromboplastin reagents containing TF and phospholipids were prepared and diluted to various concentrations of TF. The diluted thromboplastin reagents were then used in the PT assay (FIG. 4). The four modified thromboplastin reagents were made as follows: 1. 100 ng/ml rTF relipidated in PCPS vesicles (30 μM), 2. […] The thromboplastin reagents were diluted in TA (50 mM Tris-HCl buffer, pH 7.5, 0.1% bovine serum albumin, 0.1% NaN3) to varying concentrations of TF.
# as §1
# Thromboplastin reagents—To prepare a conventional thromboplastin reagent, rTF was relipidated into phospholipid vesicles composed of 20 mol % PS, 80 mol % PC (rTF/PCPS) at a 8700:1 molar ratio of phospholipid to rTF as described. rTF/PCPS preparations were then diluted to the desired final rTF concentration in TBSA (50 mM Tris-HCl buffer, pH 7.5, 100 mM NaCl, 0.1% bovine serum albumin, 0.1% NaN3).
# (§2) PT clotting assay—PT assays were performed in a model ST4 coagulometer (Diagnostica Stago) by pipetting 50 μl of 25 mM CaCl2 and 50 μl diluted thromboplastin reagent into a coagulometer cuvette and allowing the mixture to warm to 37° C. for 2 min. Clotting was then initiated by pipetting 50 μl pre-warmed, pooled normal plasma into the cuvette and the time to clot formation recorded.
# VIIa [5] = molecular target: T3, VIIa (Homo sapiens, UniProt P08709); experiment: Allosteric activation of VIIa (chromogenic assay); type: biochemical; details: compared to sTF and rTF/PCPS; data not shown
# T3 construct: VIIa or factor VIIa means coagulation factor VIIa (active enzyme); purchased American Diagnostica
# Procedure: Measurement of Allosteric Activation of VIIa—The ability of TF to allosterically activate factor VIIa was carried out measuring the enzymatic activity of factor VIIa by a chromogenic assay. […] The reaction was initiated by the addition of the chromogenic substrate, Chromozym® t-PA (ChtPA) in a flat bottom, 96-well plate. […] Change in A405 was monitored at ambient temperature in a VERSAmax microplate reader (Molecular Devices), reading every 30 seconds for 20 minutes.
# factor-deficient plasmas = experiment: PT assay with factor-deficient plasmas; type: biochemical, human; details: 3 μg/ml sTF(His)6 with 100 μM 15% Ni-lipid, or commercial reagent
# Description: A major goal was to create a soluble form of TF that can function as a thromboplastin reagent in the PT assays. […] This reagent was then compared in PT assays to a commercially available thromboplastin reagent, STA-Neoplastine CI Plus (Diagnostica Stago). Clotting times with the two reagents were compared using pooled normal plasma as well as a number of factor-deficient plasmas (FIG. 6). (The latter were deficient in factors V, VII, VIII, IX, X, XI, XII, prekallikrein (PK), or high molecular weight kininogen (HK)).
# as §2
# VIIa [6] = molecular target: T1, VIIa; details: rTF relipidated into PCPS vesicles; literature [4]; read-out: Kd for VIIa binding; cited from earlier work
# [7] = ± SEM, sTF and rTF with PCPS, sTF-(His)6 with Ni-NTA-DOGS/PCPSPE (SUV with 15 mol % Ni-NTA-DOGS), read-out: Kd.app for VIIa binding
molecule,measurement,setting,value
"O=S(=O)([O-])[O-].[Cu+2] [Cu^2+, CuSO4]",activity in aPTT assay,pooled normal plasma [1],dramatically shortened the clotting time
"sTF: soluble tissue factor, a truncated, soluble form of tissue factor that does not have the membrane-spanning domain nor the cytoplasmic domain [reference compound]",Kd,"VIIa [2]; sTF, read-out: Kd for VIIa binding",7 nM
same,clotting times compared with sTF-5AA-(His)6,[3],much longer clotting times
same,"rates of X activation by VIIa, control combinations",X activation by VIIa,negligible rates of X activation
"[Cl-].[Cl-].[Zn+2] [Zn^2+, ZnCl2]",activity in PT assay,"pooled normal plasma [4]; metal ion with NTA-lipids (100 μM lipid), 30 ng/ml sTF-5AA-(His)6",some activity
same,activity in aPTT assay,pooled normal plasma [1],some activity
"O=S(=O)([O-])[O-].[Ni+2] [Ni^2+, NiSO4]",activity in aPTT assay,pooled normal plasma [1],dramatically shortened the clotting time
sTF(His)6: oligohistidine-tagged sTF; replaces the final two amino acids of sTF with six histidine residues,Kd,"VIIa [2]; read-out: Kd for VIIa binding to the his-tagged sTF variants, 15% Ni-lipid",0.169 nM
same,Kd,VIIa [2]; [7],0.169 ± 0.015 nM
same,procoagulant activity compared with sTF,"pooled normal plasma [4]; PT assay, 10% Ni-lipids",dramatically higher than sTF
same,Concentration of TF that yields a 50 sec. clot time,pooled normal plasma [4]; PT assay,45 ng/mL
same,ability to allosterically activate VIIa,VIIa [5],able to fully allosterically activate VIIa
same,"PT clotting times with plasmas deficient in factors V, VII or X",factor-deficient plasmas,prolonged clotting times
same,"PT sensitivity to deficiencies in clotting factors of the intrinsic pathway (factors VIII, IX, XI, XII, PK, or HK)",factor-deficient plasmas,insensitive
"[Cl-].[Cl-].[Co+2] [Co^2+, CoCl2]",PT clotting time shortened to,"pooled normal plasma [4]; metal ion added to modified thromboplastin reagent, NTA-lipids, 30 ng/ml sTF-5AA-(His)6",less than 100 sec
same,activity in aPTT assay,pooled normal plasma [1],some activity
B1,affinity of VIIa for rTF/PCPS relative to sTF,VIIa [2],approximately 100 fold
same,Kd,VIIa [2]; [7],0.04 ± 0.005 nM
same,Kd,VIIa [6],< 0.05 nM
same,Concentration of TF that yields a 50 sec. clot time,pooled normal plasma [4]; PT assay,0.7 ng/mL
